Like-named read-outs stand apart in the source and are kept apart here.
Key:
[1] = tested on: K-562 human chronic myelogenous leukemia (CML) cells; assay: Alamar Blue cell proliferation assay, K-562; assay type: cell-based; conditions: K562, Table 4
Protocol: (§1) A representative cell-proliferation assay protocol using Alamar Blue dye (stored at 4° C., use 20 ul per well) is described hereafter.
(§2) a. Split and trypsinize cells.
(§3) b. Count cells using hemocytometer.
(§4) c. Plate 4,000-5,000 cells per well in 100 μl of medium and seed into a 96-well plate according to the following plate layout. Add cell culture medium only to wells B10 to B12. Wells B1 to B9 have cells but no compound added.
(§5) d. Add 100 μl of 2× drug dilution to each well in a concentration shown in the plate layout above. At the same time, add 100 μl of media into the control wells (wells B10 to B12). Total volume is 200 μl/well.
(§6) e. Incubate four (4) days at 37° C., 5% CO2 in a humidified incubator.
(§7) f. Add 20 μl Alamar Blue reagent to each well.
(§8) g. Incubate for four (4) hours at 37° C., 5% CO2 in a humidified incubator.
(§9) h. Record fluorescence at an excitation wavelength of 544 nm and emission wavelength of 590 nm using a microplate reader.
(§10) In the assays, cells are cultured with a test compound for approximately four days, the dye is then added to the cells and fluorescence of […] dye is detected after approximately four hours. Different types of cells can be utilized in the assays (e.g., HCT-116 human colorectal carcinoma cells, PC-3 human prostatic cancer cells, MDA-MB231 human breast cancer cells, K-562 human chronic myelogenous leukemia (CML) cells, MiaPaca human pancreatic carcinoma cells, MV-4 human acute myeloid leukemia cells, and BxPC3 human pancreatic adenocarcinoma cells).

MV-4-11 = assay: Alamar Blue cell proliferation assay, MV-4-11; assay type: cell-based; conditions: Homo sapiens, MV4-11; Table 4
Protocol: as §1, §2, §3, §4, §5, §6, §7, §8, §9, §10

recombinant PIM-1 = recombinant PIM-1 (Homo sapiens, UniProt P11309); assay: PIM-1 kinase assay; assay type: biochemical; conditions: for inhibition at 0.5 µM: 500 nM compound, read-out: PIM1: % inh 500 nM
Sequence of recombinant PIM-1 (P11309 whole entry): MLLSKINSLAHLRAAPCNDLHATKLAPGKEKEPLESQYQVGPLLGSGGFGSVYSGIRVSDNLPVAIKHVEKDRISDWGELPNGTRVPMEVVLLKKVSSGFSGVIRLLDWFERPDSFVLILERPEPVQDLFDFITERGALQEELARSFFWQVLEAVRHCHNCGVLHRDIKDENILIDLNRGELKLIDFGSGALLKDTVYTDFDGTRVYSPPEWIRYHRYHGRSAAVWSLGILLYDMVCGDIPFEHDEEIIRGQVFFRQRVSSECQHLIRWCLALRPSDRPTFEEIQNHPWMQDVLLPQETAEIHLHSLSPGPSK
Protocol: The following procedure was used to assay the PIM-1 kinase activity of compounds of the invention. Other methods for assaying PIM-1 and other PIM kinases, as well as methods to assay for activity against various kinases known in the art.
In a final reaction volume of 50 ul, recombinant PIM-1 (1 ng) was incubated with 12 mM MOPS pH 7.0, 0.4 mM EDTA, glycerol 1%, brij 35 0.002%, 2-mercaptoethanol 0.02%, BSA 0.2 mg/ml, 100 uM KKRNRTLTK, 10 mM MgAcetate, 15 uM ATP, [γ-^33P-ATP] (specific activity approx. 500 cpm/pmol), DMSO 4% and test inhibitor compound at the required concentration. The reaction was initiated by the addition of the Magnesium ATP mixture. After 40 min incubation at 23° C., the reactions were quenched by the addition of 100 ul 0.75% Phosphoric acid, and the labeled peptide collected by filtration through a phosphocellulose filter plate. The plate was washed 4 times with 0.075% phosphoric acid (100 ul per well) and then, after the addition of scintillation fluid (20 ul per well), the counts were measured by a scintillation counter.

recombinant human PIM2 = recombinant human PIM2 (Homo sapiens, UniProt Q9P1W9); assay: PIM-2 kinase assay; assay type: biochemical
Sequence of recombinant human PIM2 (Q9P1W9 whole entry): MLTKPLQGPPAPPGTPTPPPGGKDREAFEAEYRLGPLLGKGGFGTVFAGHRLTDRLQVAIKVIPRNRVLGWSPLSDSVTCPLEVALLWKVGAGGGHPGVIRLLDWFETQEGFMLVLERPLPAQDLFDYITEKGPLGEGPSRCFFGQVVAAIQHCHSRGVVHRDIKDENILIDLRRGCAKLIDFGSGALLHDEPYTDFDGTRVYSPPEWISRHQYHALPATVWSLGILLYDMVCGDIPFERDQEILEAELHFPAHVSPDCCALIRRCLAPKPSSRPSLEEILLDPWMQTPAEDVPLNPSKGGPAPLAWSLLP
Protocol: Test compounds dissolved and diluted in DMSO (2 μl) were added to a reaction mixture comprising 10 μl of 5× Reaction Buffer (40 mM MOPS pH 7.0, 5 mM EDTA), 10 μl of recombinant human PIM2 solution (4 ng PIM-2 dissolved in dilution buffer (20 mM MOPS pH 7.0; EDTA 1 mM; 5% Glycerol; 0.01% Brij 35; […]; […] 2-mercaptoethanol; 1 mg/ml BSA)) and 8 ul of water. Reactions were initiated by the addition of 10 ul of ATP Solution ([…] (15 mM MgCl2; 75 uM ATP) 1% ([γ-33P]ATP: Stock 1 mCi/100 μl; 3000 Ci/mmol (Perkin Elmer)) and 10 ul of substrate peptide solution (RSRSSYPAGT, dissolved in water at a concentration of 1 mM), Reactions were maintained for 10 min at 30° C. The reactions were quenched with 100 ul of 0.75% Phosphoric acid, then transferred to and filtered through a Phosphocellulose filter plate (Millipore, MSPH-N6B-50). After washing each well 4 times with 0.75% Phosphoric acid, scintillation fluid (20 uL) was added to each well and the residual radioactivity was measured using a Wallac luminescence counter.

recombinant human CK2 = biological target: T1, recombinant human CK2 (Homo sapiens, UniProt P68400); assay: cell-free CK2 assay; assay type: biochemical
T1 construct: purchased Upstate
T1 sequence (P68400 whole entry): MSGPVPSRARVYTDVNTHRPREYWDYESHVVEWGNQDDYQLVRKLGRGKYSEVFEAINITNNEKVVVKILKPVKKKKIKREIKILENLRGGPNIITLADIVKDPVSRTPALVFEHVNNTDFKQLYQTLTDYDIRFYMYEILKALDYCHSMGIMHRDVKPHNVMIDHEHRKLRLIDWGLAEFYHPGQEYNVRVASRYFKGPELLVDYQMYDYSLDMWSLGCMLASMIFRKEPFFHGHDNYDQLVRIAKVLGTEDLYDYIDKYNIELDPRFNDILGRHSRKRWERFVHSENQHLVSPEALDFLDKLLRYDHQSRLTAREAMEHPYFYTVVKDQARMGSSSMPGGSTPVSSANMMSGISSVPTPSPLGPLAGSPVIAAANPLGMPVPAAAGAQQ
T1 sequence (P67870 whole entry partner): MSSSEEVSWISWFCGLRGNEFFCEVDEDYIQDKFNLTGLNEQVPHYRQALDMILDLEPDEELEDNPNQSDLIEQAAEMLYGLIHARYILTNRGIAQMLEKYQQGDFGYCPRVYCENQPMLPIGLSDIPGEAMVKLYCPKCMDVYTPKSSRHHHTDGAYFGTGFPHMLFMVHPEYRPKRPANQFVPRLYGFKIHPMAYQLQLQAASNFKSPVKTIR
Protocol: Modulatory activity of compounds described herein was assessed in vitro in cell-free CK2 assays by the following method.
Test compounds in aqueous solution were added at a volume of 10 microliters, to a reaction mixture comprising 10 microliters Assay Dilution Buffer (ADB; 20 mM MOPS, pH 7.2, 25 mM beta-glycerolphosphate, 5 mM EGTA, 1 mM sodium orthovanadate and 1 mM dithiothreitol), 10 microliters of substrate peptide (RRRDDDSDDD, dissolved in ADB at a concentration of 1 mM), 10 microliters of recombinant human CK2 (25 ng dissolved in ADB; Upstate). Reactions were initiated by the addition of 10 microliters of ATP Solution (90% 75 mM MgCl2, 75 micromolar ATP dissolved in ADB; 10% [γ-^33P]ATP (stock 1 mCi/100 μl; 3000 Ci/mmol (Perkin Elmer) and maintained for 10 minutes at 30 degrees C. The reactions were quenched with 100 microliters of 0.75% phosphoric acid, then transferred to and filtered through a phosphocellulose filter plate (Millipore). After washing each well 5 times with 0.75% phosphoric acid, the plate was dried under vacuum for 5 min and, following the addition of 15 ul of scintilation fluid to each well, the residual radioactivity was measured using a Wallac luminescence counter.

[2] = 15 μM ATP, read-out: PIM1: IC50 (15 μM ATP)

c1ccc(Nc2nc3cc(-c4nnn[nH]4)ccc3n3cccc23)cc1
IC50 [1]: > 10000 nM
IC50 (MV-4-11): > 10000 nM
inhibition at 0.5 µM (recombinant PIM-1): 75.9%
IC50 (recombinant PIM-1; [2]): 164 nM

O=C(c1ccc2c(c1)[nH]c(=O)c1cccn12)N1CCNCC1
inhibition at 0.5 µM (recombinant PIM-1): -11.8%

OCCNc1nc2cc(-c3nnn[nH]3)ccc2n2cccc12
IC50 [1]: > 10000 nM
IC50 (MV-4-11): > 10000 nM
inhibition at 0.5 µM (recombinant PIM-1): 67.9%
IC50 (recombinant PIM-1; [2]): 273 nM

CN1CCCC(Nc2nc3cc(C(=O)O)ccc3n3cccc23)C1 (centres unmarked)
IC50 [1]: > 10000 nM
IC50 (MV-4-11): > 10000 nM
inhibition at 0.5 µM (recombinant PIM-1): 69.5%
IC50 (recombinant PIM-1; [2]): 330 nM

CCOC(=O)c1ccc2c(c1)nc(Nc1ccc(F)c(Cl)c1)c1cccn12
inhibition at 0.5 µM (recombinant PIM-1): -76.2%

c1cc(-c2nnc[nH]2)c2nc(NC3CC3)c3cccn3c2c1
IC50 (recombinant human PIM2): < 1000 nM
IC50 (recombinant human CK2): < 1000 nM
IC50 (recombinant PIM-1; Table 5, read-out: PIM1 IC50): < 100 nM

CN1CCN(C(=O)c2ccc3c(c2)[nH]c(=O)c2cccn23)CC1
inhibition at 0.5 µM (recombinant PIM-1): -31.9%

NC(=O)c1cccc2c1nc(Nc1ccccc1F)c1cncn12
IC50 (recombinant human PIM2): < 100 nM
IC50 (recombinant human CK2): < 100 nM

FC(F)(F)CCNc1nc2c(-c3nnc[nH]3)cccc2n2cccc12
IC50 (recombinant human PIM2): < 1000 nM
IC50 (recombinant human CK2): < 5000 nM
IC50 (recombinant PIM-1; Table 5, read-out: PIM1 IC50): < 100 nM

O=C(c1ccc2c(c1)[nH]c(=O)c1cccn12)N1CCCNCC1
inhibition at 0.5 µM (recombinant PIM-1): -0.195%

O=C(O)c1ccc2c(c1)nc(NCCC(F)(F)F)c1cccn12
inhibition at 0.5 µM (recombinant PIM-1): 46%

CCOC(=O)c1cccc2c1nc(N(C(=O)OC(C)(C)C)c1ccccc1F)c1cccn12
IC50 (recombinant human PIM2): > 2500 nM
IC50 (recombinant human CK2): > 5000 nM
IC50 (recombinant PIM-1; Table 5, read-out: PIM1 IC50): > 2500 nM

COc1ccc(Nc2nc3cc(-c4nnn[nH]4)ccc3n3cccc23)cc1Cl
inhibition at 0.5 µM (recombinant PIM-1): 19.4%

COc1cccc(Nc2nc3cc(-c4nnn[nH]4)ccc3n3cccc23)c1
inhibition at 0.5 µM (recombinant PIM-1): 15%

O=C(O)c1ccc2c(c1)nc(NCCN1CCOCC1)c1cccn12
inhibition at 0.5 µM (recombinant PIM-1): 18.9%

CCN1CCCC1CNc1nc2cc(C(=O)O)ccc2n2cccc12 (centres unmarked)
IC50 [1]: > 10000 nM
IC50 (MV-4-11): > 10000 nM
inhibition at 0.5 µM (recombinant PIM-1): 89.7%
IC50 (recombinant PIM-1; [2]): 200 nM

CCOC(=O)c1cccc2c1[nH]c(=O)c1nccn12
IC50 (recombinant human PIM2): > 2500 nM
IC50 (recombinant human CK2): > 5000 nM

O=C(O)c1ccc2c(c1)nc(NCCN1CCCCC1)c1cccn12
IC50 [1]: > 10000 nM
IC50 (MV-4-11): > 10000 nM
inhibition at 0.5 µM (recombinant PIM-1): 98.8%
IC50 (recombinant PIM-1; [2]): 372 nM

CN(C)CCNc1nc2cc(C(=O)O)ccc2n2cccc12
IC50 [1]: > 10000 nM
IC50 (MV-4-11): 688 nM
inhibition at 0.5 µM (recombinant PIM-1): 76.5%
IC50 (recombinant PIM-1; [2]): 173 nM

N#Cc1ccc2c(c1)[nH]c(=O)c1cccn12
inhibition at 0.5 µM (recombinant PIM-1): -28.6%

CCOC(=O)c1cccc2c1nc(Nc1ccccc1F)c1cccn12
IC50 (recombinant human PIM2): > 2500 nM
IC50 (recombinant human CK2): > 5000 nM
IC50 (recombinant PIM-1; Table 5, read-out: PIM1 IC50): > 2500 nM

N#Cc1ccc2c(c1)nc(NCc1ccccc1)c1cccn12
inhibition at 0.5 µM (recombinant PIM-1): -35%

O=C(O)c1ccc2c(c1)nc(NCCN1CCCC1)c1cccn12
IC50 [1]: > 10000 nM
IC50 (MV-4-11): > 10000 nM
inhibition at 0.5 µM (recombinant PIM-1): 72.5%
IC50 (recombinant PIM-1; [2]): 504 nM

NC(=O)c1ccc2c(c1)[nH]c(=O)c1cccn12
inhibition at 0.5 µM (recombinant PIM-1): -22.5%

O=C(O)c1cccc2c1nc(Nc1ccccc1F)c1cncn12
IC50 (recombinant human PIM2): > 2500 nM
IC50 (recombinant human CK2): < 1000 nM

CC(=O)N1CCN(C(=O)c2ccc3c(c2)[nH]c(=O)c2cccn23)CC1
inhibition at 0.5 µM (recombinant PIM-1): -8.35%

CN(C)CCNc1nc2cc(-c3nnn[nH]3)ccc2n2cccc12
IC50 [1]: > 10000 nM
IC50 (MV-4-11): > 10000 nM
inhibition at 0.5 µM (recombinant PIM-1): 63.5%
IC50 (recombinant PIM-1; [2]): 486 nM

CCOC(=O)c1ccc2c(c1)[nH]c(=O)c1cccn12
inhibition at 0.5 µM (recombinant PIM-1): 14%

CN(C)CCNC(=O)c1ccc2c(c1)[nH]c(=O)c1cccn12
inhibition at 0.5 µM (recombinant PIM-1): -13.9%

O=C(O)c1ccc2c(c1)[nH]c(=O)c1cccn12
inhibition at 0.5 µM (recombinant PIM-1): 25.6%

Fc1ccc(Nc2nc3cc(-c4nnn[nH]4)ccc3n3cccc23)cc1
IC50 [1]: > 10000 nM
IC50 (MV-4-11): > 10000 nM
inhibition at 0.5 µM (recombinant PIM-1): 73.2%
IC50 (recombinant PIM-1; [2]): 365 nM

O=c1[nH]c2cc(-c3nnn[nH]3)ccc2n2cccc12
inhibition at 0.5 µM (recombinant PIM-1): 41.8%

CCOC(=O)c1cccc2c1[nH]c(=O)c1cncn12
IC50 (recombinant human PIM2): > 2500 nM
IC50 (recombinant human CK2): < 5000 nM

O=C(O)c1ccc2c(c1)nc(NCCO)c1cccn12
inhibition at 0.5 µM (recombinant PIM-1): 35%

c1ccc(CNc2nc3cc(-c4nnn[nH]4)ccc3n3cccc23)cc1
inhibition at 0.5 µM (recombinant PIM-1): 14.4%

CCOC(=O)c1cccc2c1nc(Nc1ccccc1F)c1cncn12
IC50 (recombinant human PIM2): > 2500 nM
IC50 (recombinant human CK2): < 5000 nM

N#Cc1ccc2c(c1)nc(Cl)c1cccn12
inhibition at 0.5 µM (recombinant PIM-1): -35.4%

CC(C)(C)OC(=O)N1CCCN(C(=O)c2ccc3c(c2)[nH]c(=O)c2cccn23)CC1
inhibition at 0.5 µM (recombinant PIM-1): -46.9%

CC(C)(C)OC(=O)N1CCN(C(=O)c2ccc3c(c2)[nH]c(=O)c2cccn23)CC1
inhibition at 0.5 µM (recombinant PIM-1): -27.1%

c1ccc(Nc2nc3cc(-c4nnc[nH]4)ccc3n3cccc23)cc1
inhibition at 0.5 µM (recombinant PIM-1): -24.5%

CCN1CCCC1CNc1nc2cc(-c3nnn[nH]3)ccc2n2cccc12 (centres unmarked)
IC50 [1]: > 10000 nM
IC50 (MV-4-11): > 10000 nM
inhibition at 0.5 µM (recombinant PIM-1): 81.5%
IC50 (recombinant PIM-1; [2]): 97 nM

COc1ccc(OC)c(Nc2nc3cc(-c4nnn[nH]4)ccc3n3cccc23)c1
inhibition at 0.5 µM (recombinant PIM-1): 10.9%

O=C(O)c1ccc2c(c1)nc(Nc1ccccc1)c1cccn12
IC50 [1]: > 10000 nM
IC50 (MV-4-11): 483 nM
inhibition at 0.5 µM (recombinant PIM-1): 73.1%
IC50 (recombinant PIM-1; [2]): 130 nM

— patent publication US20100298302A1, “NOVEL PROTEIN KINASE MODULATORS” (priority 2009, published 2010)
